Experimental data published in publication PMC2556091 (The EMBO Journal, 2008).

Molecular target: T1, XcOGT (Xanthomonas campestris, UniProt Q8PC69)
T1 sequence (Q8PC69 1-568): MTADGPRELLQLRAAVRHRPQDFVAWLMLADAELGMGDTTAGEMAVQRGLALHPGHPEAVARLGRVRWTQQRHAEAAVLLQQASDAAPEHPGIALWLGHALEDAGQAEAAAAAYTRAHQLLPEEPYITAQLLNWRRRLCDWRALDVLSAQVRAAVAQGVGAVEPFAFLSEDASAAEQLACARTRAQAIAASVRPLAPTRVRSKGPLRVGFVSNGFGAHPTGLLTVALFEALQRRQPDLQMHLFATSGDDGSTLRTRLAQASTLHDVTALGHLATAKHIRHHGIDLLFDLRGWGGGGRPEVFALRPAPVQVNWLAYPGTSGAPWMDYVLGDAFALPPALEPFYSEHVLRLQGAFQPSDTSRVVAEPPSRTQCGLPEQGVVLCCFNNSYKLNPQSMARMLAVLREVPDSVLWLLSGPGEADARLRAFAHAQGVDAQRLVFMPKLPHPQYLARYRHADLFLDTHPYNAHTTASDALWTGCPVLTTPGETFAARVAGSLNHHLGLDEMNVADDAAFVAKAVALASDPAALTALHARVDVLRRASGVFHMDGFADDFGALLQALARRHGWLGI
Assay: surface plasmon resonance
Assay type: binding

## CC(=O)N[C@H]1[C@@H](OP(=O)(O)OP(=O)(O)OC[C@H]2O[C@@H](n3ccc(=O)[nH]c3=O)[C@H](O)[C@@H]2O)O[C@H](CO)[C@@H](O)[C@@H]1O [UDP-GlcNAc]
  Kd: 4.2 µM
